What was measured:
DLD-1 BRCA2−/− cells = experiment: Homologous recombination synthetic lethal inhibition of proliferation, DLD-1 BRCA2-/- (Cell Titre Glo 3D); format: cell-based; conditions: column head only partly shown; for IC50: Homo sapiens, DLD-1, DLD-1 BRCA2-/- proliferation, read-out: POLQ PD Prolif Lumin (converted); for POLQ PD Prolif Lumin: DLD-1 BRCA2-/- proliferation
Procedure, shortened: (§1)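 DLD-1 BRCA2−/− and parental DLD-1 cells exposed to 10-point dose range (10 μM to 0.51 nM, 3-fold) in RPMI/10% FBS at 37 °C, with medium and compound replenished on day 6. Viability by Cell Titre Glo 3D luminescence at day 7 (DLD-1) or day 12 (BRCA2−/−); IC50 as concentration halving maximum signal.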

DLD-1 cells = experiment: Inhibition of proliferation, DLD-1 BRCA2 wt control (Cell Titre Glo 3D); format: cell-based; conditions: column head only partly shown; for IC50: Homo sapiens, DLD-1, DLD-1 BRCA2 wt control proliferation, read-out: POLQ PD Prolif Lumin (converted); for POLQ PD Prolif Lumin: DLD-1 BRCA2 wt control proliferation
Procedure, shortened: as §1

SMILES | IC50 (DLD-1 BRCA2−/− cells) [nM] | IC50 (DLD-1 cells) [nM] | POLQ PD Prolif Lumin (DLD-1 BRCA2−/− cells) | POLQ PD Prolif Lumin (DLD-1 cells)
Cc1ccnc(Cn2c(-c3ccc(OC4CN(C(N)=O)C4)cc3Cl)nc3c(OC4(C)CC4)ncnc32)c1 [Example T205, 3-(3-chloro-4-(6-(1-methylcyclopropoxy)-9-((4-methylpyridin-2-yl)methyl)-9H-purin-8-yl)phenoxy)azetidine-1-carboxamide] | 398 | > 10000 |  | 
CC1(Oc2ncnc3c2nc(-c2ccc(OCCN4CC(O)C4)cc2Cl)n3Cc2cc(Cl)ccn2)CC1 [Example T206, 1-(2-(3-chloro-4-(9-((4-chloropyridin-2-yl)methyl)-6-(1-methylcyclopropoxy)-9H-purin-8-yl)phenoxy)ethyl)azetidin-3-ol] | 126 | > 10000 |  | 
CC1(Oc2ncnc3c2nc(-c2ccc(OCCN4CCNCC4)cc2Cl)n3Cc2ncc(C(F)(F)F)s2)CC1 [Example T207, 2-((8-(2-chloro-4-(2-(piperazin-1-yl)ethoxy)phenyl)-6-(1-methylcyclopropoxy)-9H-purin-9-yl)methyl)-5-(trifluoromethyl)thiazole] | 794 | 10000 |  | 
Cc1ccnc(Cn2c(-c3ccc(O[C@H]4CCNC4)cc3Cl)nc3c(OC4(C)CC4)ncnc32)c1 [Example T208, (S)-8-(2-chloro-4-(pyrrolidin-3-yloxy)phenyl)-6-(1-methylcyclopropoxy)-9-((4-methylpyridin-2-yl)methyl)-9H-purine] | 501 | > 10000 |  | 
Cc1ccnc(Cn2c(-c3ccc(CN4CC(O)C4)cc3Cl)nc3c(OC4(C)CC4)ncnc32)c1 [Example T209, 1-(3-chloro-4-(6-(1-methylcyclopropoxy)-9-((4-methylpyridin-2-yl)methyl)-9H-purin-8-yl)benzyl)azetidin-3-ol] | 631 | > 10000 |  | 
Cc1ccnc(Cn2c(-c3ccc(CC(=O)N(C)C)cc3Cl)nc3c(OC4(C)CC4)ncnc32)c1 [Example T210, 2-(3-chloro-4-(6-(1-methylcyclopropoxy)-9-((4-methylpyridin-2-yl)methyl)-9H-purin-8-yl)phenyl)-N,N-dimethylacetamide] | 316 | > 10000 |  | 
Cc1cnc(Cn2c(-c3ccc(OC4CC5(CNC5)C4)cc3Cl)nc3c(OC4(C)CC4)ncnc32)s1 [Example T215, 2-((8-(4-((2-azaspiro[3.3]heptan-6-yl)oxy)-2-chlorophenyl)-6-(1-methylcyclopropoxy)-9H-purin-9-yl)methyl)-5-methylthiazole] | 1000 | > 10000 |  | 
Cc1ccnc(Cn2c(-c3ccc(N4CCS(=O)(=O)CC4)cc3Cl)nc3c(OC4(C)CC4)ncnc32)c1 [Example T225, 4-(3-chloro-4-(6-(1-methylcyclopropoxy)-9-((4-methylpyridin-2-yl)methyl)-9H-purin-8-yl)phenyl)thiomorpholine 1,1-dioxide] | 631 | > 10000 |  | 
CC1(Oc2ncnc3c2nc(-c2ccc(N4CCC(N)CC4)cc2Cl)n3Cc2cc(Cl)ccn2)CC1 [Example T230, 1-(3-chloro-4-(9-((4-chloropyridin-2-yl)methyl)-6-(1-methylcyclopropoxy)-9H-purin-8-yl)phenyl)piperidin-4-amine] | 398 | > 10000 |  | 
CN(C)CCCOc1ccc(-c2nc3c(OC4(C)CC4)ncnc3n2Cc2cc(Cl)ccn2)c(F)c1 [Example T231, 3-(4-(9-((4-chloropyridin-2-yl)methyl)-6-(1-methylcyclopropoxy)-9H-purin-8-yl)-3-fluorophenoxy)-N,N-dimethylpropan-1-amine] | 251 | > 10000 |  | 
Cc1ccnc(Cn2c(-c3ccc(OCCCS(C)(=O)=O)cc3Cl)nc3c(OC4(C)CC4)ncnc32)c1 [Example T234, 8-(2-chloro-4-(3-(methylsulfonyl)propoxy)phenyl)-6-(1-methylcyclopropoxy)-9-((4-methylpyridin-2-yl)methyl)-9H-purine] | 200 | > 10000 |  | 
Cc1ccnc(Cn2c(-c3ccc(CCN(C)C)cc3Cl)nc3c(OC4(C)CC4)ncnc32)c1 [Example T236, 2-(3-chloro-4-(6-(1-methylcyclopropoxy)-9-((4-methylpyridin-2-yl)methyl)-9H-purin-8-yl)phenyl)-N,N-dimethylethan-1-amine] | 251 | > 10000 |  | 
Cc1ccnc(Cn2c(-c3cccc(OCCN(C)C)c3Cl)nc3c(OC4(C)CC4)ncnc32)c1 [Example T237, 2-(2-chloro-3-(6-(1-methylcyclopropoxy)-9-((4-methylpyridin-2-yl)methyl)-9H-purin-8-yl)phenoxy)-N,N-dimethylethan-1-amine] | 50.1 | > 10000 |  | 
CNCCCOc1ccc(-c2nc3c(OC4(C)CC4)ncnc3n2Cc2cc(C)ccn2)c(Cl)c1 [Example T238, 3-(3-chloro-4-(6-(1-methylcyclopropoxy)-9-((4-methylpyridin-2-yl)methyl)-9H-purin-8-yl)phenoxy)-N-methylpropan-1-amine] | 501 | > 10000 |  | 
Cc1cnc(Cn2c(-c3ccc(OCCN4CCCC4)cc3Cl)nc3c(OC4(C)CC4)ncnc32)s1 [Example T239, 2-((8-(2-chloro-4-(2-(pyrrolidin-1-yl)ethoxy)phenyl)-6-(1-methylcyclopropoxy)-9H-purin-9-yl)methyl)-5-methylthiazole] | 251 | > 10000 |  | 
Cc1cnc(Cn2c(-c3ccc(OC[C@H]4CCCN4C)cc3Cl)nc3c(OC4(C)CC4)ncnc32)s1 [Example T240, (R)-2-((8-(2-chloro-4-((1-methylpyrrolidin-2-yl)methoxy)phenyl)-6-(1-methylcyclopropoxy)-9H-purin-9-yl)methyl)-5-methylthiazole] | 316 | > 10000 |  | 
Cc1cnc(Cn2c(-c3ccc(OC4CCN(C)CC4)cc3Cl)nc3c(OC4(C)CC4)ncnc32)s1 [Example T241, 2-((8-(2-chloro-4-((1-methylpiperidin-4-yl)oxy)phenyl)-6-(1-methylcyclopropoxy)-9H-purin-9-yl)methyl)-5-methylthiazole] | 316 | > 10000 |  | 
Cc1cnc(Cn2c(-c3ccc(OCCCN4CC(O)C4)cc3Cl)nc3c(OC4(C)CC4)ncnc32)s1 [Example T244, 1-(3-(3-chloro-4-(6-(1-methylcyclopropoxy)-9-((5-methylthiazol-2-yl)methyl)-9H-purin-8-yl)phenoxy)propyl)azetidin-3-ol] | 501 | > 7940 |  | 
Cc1cnc(Cn2c(-c3cccc(OCCCN4CC(O)C4)c3Cl)nc3c(OC4(C)CC4)ncnc32)s1 [Example T246, 1-(3-(2-chloro-3-(6-(1-methylcyclopropoxy)-9-((5-methylthiazol-2-yl)methyl)-9H-purin-8-yl)phenoxy)propyl)azetidin-3-ol] | 794 | > 10000 |  | 
Cc1csc(Cn2c(-c3ccc(OCCN4CCNCC4)cc3Cl)nc3c(OC4(C)CC4)ncnc32)n1 [Example T248, 2-((8-(2-chloro-4-(2-(piperazin-1-yl)ethoxy)phenyl)-6-(1-methylcyclopropoxy)-9H-purin-9-yl)methyl)-4-methylthiazole] | 2000 | > 10000 |  | 
Cc1ncc(Cn2c(-c3ccc(OCCN4CCNCC4)cc3Cl)nc3c(OC4(C)CC4)ncnc32)s1 [Example T249, 5-((8-(2-chloro-4-(2-(piperazin-1-yl)ethoxy)phenyl)-6-(1-methylcyclopropoxy)-9H-purin-9-yl)methyl)-2-methylthiazole] | 3980 | > 10000 |  | 
CC1(Oc2ncnc3c2nc(-c2ccc(OCc4nc(C(=O)O)cs4)cc2Cl)n3Cc2cccc(Cl)c2)CC1 [Example T250, 2-((3-chloro-4-(9-(3-chlorobenzyl)-6-(1-methylcyclopropoxy)-9H-purin-8-yl)phenoxy)methyl)thiazole-4-carboxylic acid] | 3160 | > 10000 |  | 
CC1(Oc2ncnc3c2nc(-c2ccc(O[C@H]4C[C@H](C(=O)O)C4)cc2Cl)n3Cc2cccc(Cl)c2)CC1 [Example T253, (1r,3r)-3-(3-chloro-4-(9-(3-chlorobenzyl)-6-(1-methylcyclopropoxy)-9H-purin-8-yl)phenoxy)cyclobutane-1-carboxylic acid] |  |  | 6.5 | <5.0
CC1(Oc2ncnc3c2nc(-c2ccc(O[C@H]4C[C@@H](C(=O)O)C4)cc2Cl)n3Cc2cccc(Cl)c2)CC1 [Example T254, (1s,3s)-3-(3-chloro-4-(9-(3-chlorobenzyl)-6-(1-methylcyclopropoxy)-9H-purin-8-yl)phenoxy)cyclobutane-1-carboxylic acid] |  |  | 6.8 | <5.0
CC1(Oc2ncnc3c2nc(-c2ccc(OCCN4CC(O)C4)cc2Cl)n3Cc2cc(C(F)(F)F)ccn2)CC1 [Example T284, 1-(2-(3-chloro-4-(6-(1-methylcyclopropoxy)-9-((4-(trifluoromethyl)pyridin-2-yl)methyl)-9H-purin-8-yl)phenoxy)ethyl)azetidin-3-ol] | 501 | > 10000 |  | 
CC(C)(C)Oc1cccc2c1nc(-c1ccc(OCCC(=O)O)cc1Cl)n2Cc1cccc(Cl)c1 [Example T288, 3-(4-(4-(tert-butoxy)-1-(3-chlorobenzyl)-1H-benzo[d]imidazol-2-yl)-3-chlorophenoxy)propanoic acid] | 2000 | > 10000 |  | 
CC1(Oc2ncnc3c2nc(-c2cccc(OCCCCC(=O)O)c2Cl)n3Cc2cccc(Cl)c2)CC1 [Example T292, 5-(2-chloro-3-(9-(3-chlorobenzyl)-6-(1-methylcyclopropoxy)-9H-purin-8-yl)phenoxy)pentanoic acid] | 31.6 | > 10000 |  | 
C[C@@H](CCOc1cccc(-c2nc3c(OC4(C)CC4)ncnc3n2Cc2cccc(Cl)c2)c1Cl)C(=O)O [Example T296, (S)-4-(2-chloro-3-(9-(3-chlorobenzyl)-6-(1-methylcyclopropoxy)-9H-purin-8-yl)phenoxy)-2-methylbutanoic acid] | 25.1 | > 10000 |  | 

Source: US20250195530A1, “POLQ INHIBITORS” (ASTRAZENECA AB, priority 2022, published 2025)
